In the CheMixHub viscosity set:

Experiment: xn = mol fraction of the nth substance listed

C[N+](C)(C)CC(=O)[O-] + CC(O)C(=O)O
viscosity [mPa·s]
Conditions | 293.15 K | 298.15 K | 303.15 K | 308.15 K | 313.15 K | 318.15 K | 323.15 K
100 kPa, x2 = 0.667 | – | 1266 | 818.6 | 544.6 | 374.6 | 260.5 | 190.2
100 kPa, x2 = 0.833 | 386.6 | 245.3 | 167.7 | 120.4 | 86.1 | 65.5 | 50.6
101 kPa, x1 = 0.5 | – | 17780 | – | – | – | 6043 | –

C1=C[C@H]2[C@@H](C1)[C@H]1C=C[C@@H]2C1 + CCCCCO
viscosity [mPa·s], 101.2 kPa
Conditions | x1 = 0.1058 | x1 = 0.1953 | x1 = 0.3 | x1 = 0.4005 | x1 = 0.498 | x1 = 0.5999 | x1 = 0.7018 | x1 = 0.8009 | x1 = 0.8999
293.15 K | 3.719 | 3.558 | 3.422 | 3.307 | 3.279 | 3.283 | 3.368 | 3.522 | 3.876
303.15 K | 2.86 | 2.734 | 2.63 | 2.569 | 2.547 | 2.575 | 2.648 | 2.784 | 3.037
313.15 K | 2.201 | 2.126 | 2.062 | 2.032 | 2.035 | 2.075 | 2.14 | 2.259 | 2.466

Cc1ccc[n+](CCCO)c1.[Cl-] + O
viscosity [mPa·s], 100 kPa
Conditions | x1 = 0.001832 | x1 = 0.002695 | x1 = 0.003588 | x1 = 0.005369 | x1 = 0.007151 | x1 = 0.008924
293.15 K | 1.065 | 1.09 | 1.114 | 1.16 | 1.204 | 1.246
298.15 K | 0.943 | 0.965 | 0.986 | 1.025 | 1.063 | 1.1
303.15 K | 0.841 | 0.86 | 0.877 | 0.912 | 0.945 | 0.976
308.15 K | 0.757 | 0.773 | 0.789 | 0.819 | 0.848 | 0.876
313.15 K | 0.682 | 0.696 | 0.709 | 0.735 | 0.76 | 0.784

C1COCCO1 + C1CCCCC1
viscosity [mPa·s], 101 kPa
Conditions | 298.15 K | 303.15 K | 308.15 K | 313.15 K | 318.15 K
x1 = 0.1001 | – | 0.793 | – | – | –
x1 = 0.2073 | – | 0.783 | – | – | –
x1 = 0.3007 | – | 0.785 | – | – | –
x1 = 0.4018 | – | 0.787 | – | – | –
x1 = 0.5018 | – | 0.815 | – | – | –
x1 = 0.5983 | – | 0.841 | – | – | –
x1 = 0.6997 | – | 0.882 | – | – | –
x1 = 0.7992 | – | 0.934 | – | – | –
x1 = 0.8901 | – | 1 | – | – | –
x2 = 0.0864 | 1.083 | 1.009 | 0.936 | 0.869 | 0.808
x2 = 0.2096 | 0.992 | 0.917 | 0.851 | 0.792 | 0.738
x2 = 0.286 | 0.943 | 0.876 | 0.813 | 0.756 | 0.702
x2 = 0.391 | 0.887 | 0.82 | 0.763 | 0.709 | 0.661
x2 = 0.535 | 0.848 | 0.785 | 0.73 | 0.676 | 0.632
x2 = 0.6125 | 0.831 | 0.772 | 0.715 | 0.665 | 0.621
x2 = 0.685 | 0.821 | 0.766 | 0.711 | 0.66 | 0.617
x2 = 0.773 | 0.824 | 0.763 | 0.708 | 0.66 | 0.614
x2 = 0.8223 | 0.828 | 0.768 | 0.714 | 0.663 | 0.617
x2 = 0.9303 | 0.847 | 0.781 | 0.724 | 0.673 | 0.627

Brc1ccccc1 + ClC(Cl)(Cl)Cl
Conditions | viscosity [mPa·s]
298 K, 101.3 kPa, x2 = 0.1709 | 1.035
298 K, 101.3 kPa, x2 = 0.3202 | 1.011
298 K, 101.3 kPa, x2 = 0.5187 | 0.971
298 K, 101.3 kPa, x2 = 0.6674 | 0.942
298 K, 101.3 kPa, x2 = 0.8522 | 0.915
303.15 K, 101 kPa, x1 = 0.092 | 0.727
303.15 K, 101 kPa, x1 = 0.187 | 0.653
303.15 K, 101 kPa, x1 = 0.283 | 0.624
303.15 K, 101 kPa, x1 = 0.38 | 0.595
303.15 K, 101 kPa, x1 = 0.479 | 0.619
303.15 K, 101 kPa, x1 = 0.58 | 0.656
303.15 K, 101 kPa, x1 = 0.682 | 0.7
303.15 K, 101 kPa, x1 = 0.787 | 0.778
303.15 K, 101 kPa, x1 = 0.892 | 0.881
318 K, 101.3 kPa, x2 = 0.1581 | 0.8313
318 K, 101.3 kPa, x2 = 0.3169 | 0.8147
318 K, 101.3 kPa, x2 = 0.5212 | 0.7898
318 K, 101.3 kPa, x2 = 0.6657 | 0.7758
318 K, 101.3 kPa, x2 = 0.8618 | 0.76

BrCCBr + ClCCCl
298.15 K, 101 kPa
Conditions | viscosity [mPa·s]
x2 = 0.175 | 1.421
x2 = 0.3753 | 1.216
x2 = 0.5066 | 1.117
x2 = 0.6547 | 1.006
x2 = 0.7793 | 0.9179
x2 = 0.8501 | 0.8648

C1=C[C@H]2[C@@H](C1)[C@H]1C=C[C@@H]2C1 + CCO
viscosity [mPa·s], 101.2 kPa
Conditions | x1 = 0.1001 | x1 = 0.1997 | x1 = 0.2973 | x1 = 0.4003 | x1 = 0.501 | x1 = 0.6023 | x1 = 0.699 | x1 = 0.8013 | x1 = 0.9002
293.15 K | 1.493 | 1.788 | 2.076 | 2.381 | 2.68 | 3.001 | 3.332 | 3.701 | 4.073
303.15 K | 1.232 | 1.449 | 1.657 | 1.879 | 2.098 | 2.339 | 2.595 | 2.879 | 3.161
313.15 K | 1.038 | 1.209 | 1.369 | 1.541 | 1.718 | 1.911 | 2.111 | 2.345 | 2.579

BrCCBr + Cc1ccc(C)cc1
101.33 kPa
Conditions | viscosity [mPa·s]
298.15 K, x1 = 0.1435 | 0.6686
298.15 K, x1 = 0.2783 | 0.7322
298.15 K, x1 = 0.391 | 0.7899
298.15 K, x1 = 0.4898 | 0.887
298.15 K, x1 = 0.5921 | 1.001
298.15 K, x1 = 0.6809 | 1.082
298.15 K, x1 = 0.7685 | 1.169
298.15 K, x1 = 0.8555 | 1.309
298.15 K, x1 = 0.9211 | 1.459
308.15 K, x1 = 0.1371 | 0.5822
308.15 K, x1 = 0.2566 | 0.6257
308.15 K, x1 = 0.3821 | 0.6992
308.15 K, x1 = 0.4845 | 0.7526
308.15 K, x1 = 0.5874 | 0.8292
308.15 K, x1 = 0.6798 | 0.9216
308.15 K, x1 = 0.7647 | 1.018
308.15 K, x1 = 0.8499 | 1.154
308.15 K, x1 = 0.9258 | 1.273
